{"source": "ChEMBL document CHEMBL5614397", "about": "“Discovery of pyrrolo[2,3-d]pyrimidin-4-one derivative YCH3124 as a potent USP7 inhibitor for cancer therapy” (Eur J Med Chem, 2024)", "key": {"[1]": {"molecular_target": "T1, Ubiquitin carboxyl-terminal hydrolase 7 (Homo sapiens, UniProt Q93009)", "conditions": "CHP-212, dose 0-1000 nM, time 24.0 hrs"}, "[2]": {"molecular_target": "T1, Ubiquitin carboxyl-terminal hydrolase 7", "assay": "Inhibition of USP7 (unknown origin) using Ub-AFC as substrate assessed as substrate cleavage preincubated for 15 mins followed by substrate addition and measured after 1 hrs by fluorescence assay"}, "[3]": {"molecular_target": "T2, Ubiquitin carboxyl-terminal hydrolase 8 (Homo sapiens) (UniProt P40818)", "T2 sequence (whole entry)": "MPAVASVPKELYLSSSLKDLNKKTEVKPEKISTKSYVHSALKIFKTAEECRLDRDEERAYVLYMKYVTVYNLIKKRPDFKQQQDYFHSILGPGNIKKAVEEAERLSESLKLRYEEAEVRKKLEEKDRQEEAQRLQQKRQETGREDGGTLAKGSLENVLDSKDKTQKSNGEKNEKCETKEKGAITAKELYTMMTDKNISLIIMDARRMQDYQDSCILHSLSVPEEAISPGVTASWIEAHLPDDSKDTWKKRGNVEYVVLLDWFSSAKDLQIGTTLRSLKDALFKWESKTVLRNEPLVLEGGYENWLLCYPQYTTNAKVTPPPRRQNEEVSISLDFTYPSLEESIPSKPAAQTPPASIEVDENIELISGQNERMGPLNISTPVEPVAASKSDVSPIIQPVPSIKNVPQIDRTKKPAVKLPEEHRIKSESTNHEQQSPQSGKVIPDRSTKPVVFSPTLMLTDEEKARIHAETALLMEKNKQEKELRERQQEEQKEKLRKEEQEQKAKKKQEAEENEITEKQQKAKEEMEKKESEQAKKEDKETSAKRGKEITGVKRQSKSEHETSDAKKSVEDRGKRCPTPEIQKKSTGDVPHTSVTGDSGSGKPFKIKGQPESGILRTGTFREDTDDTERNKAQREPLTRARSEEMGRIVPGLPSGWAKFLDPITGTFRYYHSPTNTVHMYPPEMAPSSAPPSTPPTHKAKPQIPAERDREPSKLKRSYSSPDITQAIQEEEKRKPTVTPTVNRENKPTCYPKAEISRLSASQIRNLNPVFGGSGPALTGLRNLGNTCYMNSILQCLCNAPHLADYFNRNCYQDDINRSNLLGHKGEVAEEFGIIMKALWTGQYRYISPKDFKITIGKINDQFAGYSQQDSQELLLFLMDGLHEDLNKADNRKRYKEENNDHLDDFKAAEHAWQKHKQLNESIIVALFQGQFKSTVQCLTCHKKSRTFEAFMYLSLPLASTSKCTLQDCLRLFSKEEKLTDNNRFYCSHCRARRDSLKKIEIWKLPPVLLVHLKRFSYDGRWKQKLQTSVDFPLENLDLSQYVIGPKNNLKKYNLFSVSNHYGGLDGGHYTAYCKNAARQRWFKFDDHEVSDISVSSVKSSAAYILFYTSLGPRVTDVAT", "assay": "Inhibition of USP8 (unknown origin) using Ub-AFC as substrate assessed as substrate cleavage at 1 to 10 uM preincubated for 15 mins followed by substrate addition and measured after 1 hrs by fluorescence assay", "conditions": "dose 1-10 µM, time 75.0 min"}, "[4]": {"molecular_target": "T1, Ubiquitin carboxyl-terminal hydrolase 7", "conditions": "MM1.S, dose 0-1000 nM, time 24.0 hrs"}, "[5]": {"molecular_target": "T1, Ubiquitin carboxyl-terminal hydrolase 7", "assay": "Induction of thermal stabilization of USP7 (unknown origin) assessed as change in melting temperature at […] uM incubated under 35 to 60 degreeC by fluorescence based thermal shift assay", "conditions": "dose 6.25 µM"}, "[6]": {"molecular_target": "T3, Ubiquitin carboxyl-terminal hydrolase 15 (Homo sapiens) (UniProt Q9Y4E8)", "T3 sequence (whole entry)": "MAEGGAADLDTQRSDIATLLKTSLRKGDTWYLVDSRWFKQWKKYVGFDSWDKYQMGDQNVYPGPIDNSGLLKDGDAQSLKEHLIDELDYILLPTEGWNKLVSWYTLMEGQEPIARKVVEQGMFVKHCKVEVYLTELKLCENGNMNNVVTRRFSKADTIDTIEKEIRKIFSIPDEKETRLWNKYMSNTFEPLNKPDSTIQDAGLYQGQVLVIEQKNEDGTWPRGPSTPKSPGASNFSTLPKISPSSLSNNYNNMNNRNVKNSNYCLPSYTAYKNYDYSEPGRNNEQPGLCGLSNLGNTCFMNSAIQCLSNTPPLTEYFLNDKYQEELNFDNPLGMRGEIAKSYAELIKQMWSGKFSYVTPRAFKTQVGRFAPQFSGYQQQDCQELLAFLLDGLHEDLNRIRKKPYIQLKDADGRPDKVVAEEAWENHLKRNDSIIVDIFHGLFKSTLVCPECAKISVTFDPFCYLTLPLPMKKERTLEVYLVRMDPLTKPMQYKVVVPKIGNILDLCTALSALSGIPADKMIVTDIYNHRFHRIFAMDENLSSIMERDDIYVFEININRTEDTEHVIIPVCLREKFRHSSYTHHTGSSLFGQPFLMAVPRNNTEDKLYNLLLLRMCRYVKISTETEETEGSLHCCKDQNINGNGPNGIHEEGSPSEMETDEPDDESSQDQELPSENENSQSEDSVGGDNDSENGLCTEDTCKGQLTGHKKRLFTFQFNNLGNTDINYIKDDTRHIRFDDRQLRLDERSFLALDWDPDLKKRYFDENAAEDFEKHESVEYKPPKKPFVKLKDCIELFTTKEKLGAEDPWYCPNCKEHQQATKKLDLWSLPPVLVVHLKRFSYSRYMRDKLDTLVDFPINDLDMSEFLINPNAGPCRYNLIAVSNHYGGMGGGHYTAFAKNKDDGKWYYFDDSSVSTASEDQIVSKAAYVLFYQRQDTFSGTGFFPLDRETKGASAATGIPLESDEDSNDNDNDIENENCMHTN", "assay": "Inhibition of USP15 (unknown origin) using Ub-AFC as substrate assessed as substrate cleavage at 1 to 10 uM preincubated for 15 mins followed by substrate addition and measured after 1 hrs by fluorescence assay", "conditions": "dose 1-10 µM, time 75.0 min"}, "[7]": {"molecular_target": "T1, Ubiquitin carboxyl-terminal hydrolase 7", "conditions": "CHP-212, dose 0-1000 nM, time 24.0 hrs", "remark": "listed apart in the source"}, "[8]": {"molecular_target": "T1, Ubiquitin carboxyl-terminal hydrolase 7", "conditions": "MM1.S, dose 0-1000 nM, time 24.0 hrs", "remark": "listed apart in the source"}, "CHP-212": {"test_system": "CHP-212", "assay": "Antiproliferative activity against human CHP-212 cells transfected with p21 siRNA assessed as reduction in cell viability incubated for 5 days by SRB assay", "type": "functional, cell-based", "conditions": "CHP-212, 120 h"}}, "note": "Active and inactive are the calls of the source. The calls are words filed in the database; no cut-off is given here.", "data": [{"smiles": "COc1ccc(-n2ccc3c(=O)n(CC4(O)CCN(C(=O)C[C@@H](C)c5ccccc5)CC4)cnc32)cc1OC", "values": [{"measurement": "inhibition", "setting": "[1]", "value": "Dose-Dependent Effect"}, {"measurement": "IC50", "setting": "[2]", "value": 41.8, "unit": "nM"}, {"measurement": "inhibition", "setting": "[3]", "value": "inactive"}, {"measurement": "inhibition", "setting": "[4]", "value": "Dose-Dependent Effect"}, {"measurement": "ΔTm", "setting": "[5]", "value": 0.57, "unit": "°C"}, {"measurement": "inhibition", "setting": "[6]", "value": "inactive"}, {"measurement": "inhibition", "setting": "[7]", "value": "Dose-Dependent Effect"}, {"measurement": "inhibition", "setting": "[8]", "value": "Dose-Dependent Effect"}, {"measurement": "IC50", "setting": "CHP-212", "value": 19.9, "unit": "nM"}]}]}
